Data from patent publication US9980943B2, “Methods of treating muscular dystrophy” (BOARD OF REGENTS OF THE NEVADA SYSTEM OF HIGHER EDUCATION, …, priority 2013, dated 2018).

What was measured:
Type in all cases: cell-based, mouse
[1] = tested on: β-galactosidase in CMV-LacZ C2C12 myotubes; test: CMV-LacZ secondary screen in C2C12 myotubes (β-Gal stabilizing assay); settings: C2C12 CMV-LacZ myotubes, fold relative to DMSO
Method in brief: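 Stable CMV-LacZ C2C12 clone; six-point curve 0.5–40 μM; duplicates.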

[2] = tested on: α7 integrin (LacZ reporter in α7βgal+/− myoblasts); test: Myoblast α7+/LacZ integrin FDG assay (Burkin assay in myoblasts, 96-well); settings: α7+/LacZ myoblasts, 96-well
[3] = tested on: α7 integrin (LacZ reporter in α7+/LacZ myotubes); test: Myotube α7 integrin FDG assay (Burkin assay in myotubes, 96-well); settings: myotubes
[4] = tested on: β-galactosidase in CMV-LacZ C2C12 myoblasts; test: CMV-LacZ secondary screen in C2C12 myoblasts (β-Gal stabilizing assay); settings: CMV-LacZ C2C12 myoblasts
Method in brief: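 C2C12 myoblasts stably carrying a linearized CMV-driven LacZ construct, clone chosen by β-gal level in the myoblast FDG assay. Compounds tested in 96-well dose-response at 0.5, 1, 5, 10, 20 and 40 μM, N=2 replicates per point, to detect β-gal stabilization.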

Compound	CMV-LACZ in Myotubes, signal relative to DMSO ([1]; 0.5 uM)	CMV-LACZ in Myotubes, signal relative to DMSO ([1]; 1 uM)	CMV-LACZ in Myotubes, signal relative to DMSO ([1]; 5 uM)	CMV-LACZ in Myotubes, signal relative to DMSO ([1]; 10 uM)	CMV-LACZ in Myotubes, signal relative to DMSO ([1]; 20 uM)	CMV-LACZ in Myotubes, signal relative to DMSO ([1]; 40 uM)	Burkin Assay in Myoblasts, signal relative to DMSO ([2]; 0.5 uM)	Burkin Assay in Myoblasts, signal relative to DMSO ([2]; 1 uM)	Burkin Assay in Myoblasts, signal relative to DMSO ([2]; 5 uM)	Burkin Assay in Myoblasts, signal relative to DMSO ([2]; 10 uM)	Burkin Assay in Myoblasts, signal relative to DMSO ([2]; 20 uM)	Burkin Assay in Myoblasts, signal relative to DMSO ([2]; 40 uM)	Burkin Assay in Myotubes, α7 integrin LacZ reporter signal relative to DMSO ([3]; 0.5 uM)	Burkin Assay in Myotubes, α7 integrin LacZ reporter signal relative to DMSO ([3]; 1 uM)	Burkin Assay in Myotubes, α7 integrin LacZ reporter signal relative to DMSO ([3]; 5 uM)	Burkin Assay in Myotubes, α7 integrin LacZ reporter signal relative to DMSO ([3]; 10 uM)	Burkin Assay in Myotubes, α7 integrin LacZ reporter signal relative to DMSO ([3]; 20 uM)	Burkin Assay in Myotubes, α7 integrin LacZ reporter signal relative to DMSO ([3]; 40 uM)	CMV-LACZ in Myoblasts (β-galactosidase activity relative to DMSO) ([4]; 0.5 uM)	CMV-LACZ in Myoblasts (β-galactosidase activity relative to DMSO) ([4]; 1 uM)	further results
CCOC(=O)c1nnn(-c2nonc2OC)c1-c1ccccc1 [MLS000045588-01]	0.9059	0.8607	1.2294	0.9776	1.0494	0.9424	1.016	1.107	1.075	0.917	1.003	0.8919	1.077	1.099	1.135	1.036	1.063	0.9546	0.7647	0.8372	CMV-LACZ in Myoblasts (β-galactosidase activity relative to DMSO) ([4]; 5 uM): 1.0245; CMV-LACZ in Myoblasts (β-galactosidase activity relative to DMSO) ([4]; 10 uM): 1.0611; CMV-LACZ in Myoblasts (β-galactosidase activity relative to DMSO) ([4]; 20 uM): 0.8056; CMV-LACZ in Myoblasts (β-galactosidase activity relative to DMSO) ([4]; 40 uM): 1.2167
CC(=O)Nc1ccc(NC(=O)C/C(C)=N/NC(=O)COc2cc(C)c(Br)cc2Br)cc1 [MLS000912562-01]	1.0905	0.8924	0.9602	1.1674	1.2090	1.2780	0.7697	0.929	1.039	0.9253	0.6911	0.5552	0.898	0.8582	0.929	0.8748	0.8872	0.7024	0.8680	0.9150	CMV-LACZ in Myoblasts (β-galactosidase activity relative to DMSO) ([4]; 5 uM): 0.7103; CMV-LACZ in Myoblasts (β-galactosidase activity relative to DMSO) ([4]; 10 uM): 0.6246; CMV-LACZ in Myoblasts (β-galactosidase activity relative to DMSO) ([4]; 20 uM): 1.0302; CMV-LACZ in Myoblasts (β-galactosidase activity relative to DMSO) ([4]; 40 uM): 0.8747
N#CC1=C2SCN(c3ccccc3)CN2C(=O)CC1c1cccs1 (stereo not drawn) [MLS000080654-01]	1.1229	1.0086	1.0335	1.0399	1.1871	1.4259	0.9788	0.923	0.9235	0.9429	1.112	0.9166	1.067	1.092	0.9044	0.9707	0.7422	0.6217	1.1851	1.4314	CMV-LACZ in Myoblasts (β-galactosidase activity relative to DMSO) ([4]; 5 uM): 1.0703; CMV-LACZ in Myoblasts (β-galactosidase activity relative to DMSO) ([4]; 10 uM): 0.9345; CMV-LACZ in Myoblasts (β-galactosidase activity relative to DMSO) ([4]; 20 uM): 1.0174; CMV-LACZ in Myoblasts (β-galactosidase activity relative to DMSO) ([4]; 40 uM): 0.8815
